Results reported in EP0336068A1, “Phenoxyalkoxy-3,4-dihydro-2H-1-benzopyran derivatives” (F. HOFFMANN-LA ROCHE AG, priority 1988, dated 1989).

System: Antibiotic-Induced Colitis in Hamsters
Assay: Antibiotic-induced colitis in hamsters (in vivo), survival
Design: species or system Syrian hamsters
Details: given orally at 20 micromoles per kilogram; colitis induced by 175 mg/kg clindamycin intraperitoneally; first dose about seven hours after injection, then twice a day for four more days; Hazard Ratio >1.0 = therapy prolongs survival versus vehicle
Procedure: Antibiotic-Induced Colitis in Hamsters (In Vivo):
Male Syrian hamsters (LUG), weighing 80 to 120 g, were each given a single dose of 175 mg/kg of clindamycin-phosphate or of clindamycin-hydrochloride intraperitoneally, to induce colitis. Approximately seven hours after injection, the animals wer given the test compound orally or intraperitoneally and the therapy was continued twice a day for a period of four more days. The effect of the therapy was measured by use of the Hazard Ratio, which is the ratio of the mortality of the animals treated with the test compound contained in a vehicle to the mortality of the animals treated with the vehicle containing none of the test compound. The mortality was determined for the test compound-treated groups and for the vehicle-treated groups, respectively, twice daily, and was evaluated by comparing the survival curves of each group. The Kaplan-Meier estimate of the survival curve was calculated for each group and the Mantel-Cox (logrank) test was used to compare the survival curve of each test compound-treated (therapy) group to that of the corresponding vehicle control group.

## CCCCCCCCOC(=O)C1CCc2cc(C(C)=O)c(OCCCCCOc3ccc(C(C)=O)c(O)c3CCC)cc2O1 (racemic) [racemic 6-acetyl-7-[5-(4-acetyl-3-hydroxy-2-propylphenoxy)pentyloxy]-3,4-dihydro-2H-1-benzopyran-2-carboxylic acid n-octyl ester]
  Hazard Ratio: 2.0
